Laboratory results taken from US5952335A, “Fused polycyclic heterocycle derivatives” (Eisai Co., Ltd., priority 1995, dated 1999).
Where a name gives a salt, the structure may show the parent alone. Read-outs that look alike come from different tables or passages of the source.

Legend:
[1] = cited from earlier work
[2] = system: P388 cells; experiment: in vitro Antitumor Test on P388 Cells (Mouse Leukemic Cells), MTT, 3 days; format: cell-based; details: 72 h, 3 days incubation
Experimental: P388 cells suspended in RPMI1640 medium (manufactured by Sanko Junyaku) containing 10% of fetal calf serum, (100 U/ml) of penicillin, 100 μg/ml of streptomycin, 5×10^-5 M of mercaptoethanol and 1 mM of sodium pyruvate were pipetted into a 96-well U-bottomed microplate at a ratio of 1.25×10^3 cells (0.1 ml) per well and incubated in a incubator containing 5% of carbon dioxide at 37° C. for a day. A compound of the present invention was dissolved in dimethyl sulfoxide to give a concentration of 10^-2 M and then diluted with the 10% fetal calf serum-containing RPMI1640 culture medium to give a concentration of 10^-4 or 10^-5 M. By taking this concentration as the maximal level, threefold serial dilution was effected with the use of the 10% fetal calf serum-containing RPMI1640 culture medium. Then these dilutions were added to the P388 incubation plate as described above at a ratio of 0.1 ml per well followed by incubation in an incubator containing 5% of carbon dioxide at 37° C. for 3 days. After the completion of the incubation, 0.05 ml/well of a 3.3 mg/ml solution of MTT [3-(4,5-dimethylthiazol-2-yl)-2,5-diphenyltetrazolium bromide] was added thereto and the incubation was continued for additional 2 hours. The microplate was centrifuged and the supernatant was aspirated off from each well. Then the formazan thus formed was dissolved in 0.1 ml of dimethyl sulfoxide and the absorbance thereof at 540 nm measured with a microplate reader was taken as an indication of the viable cell count. In accordance with the following formula, the inhibitory ratio was calculated and the 50% inhibitory concentration (IC50) of the test compound was determined: [formula] wherein T means the absorbance of a well containing the test compound; and C means the absorbance of a well containing no test compound.

[3] = system: M5076 (Mouse Reticulum Cell Sarcoma); experiment: in vivo Antitumor Test on M5076 (Mouse Reticulum Cell Sarcoma) transplanted in BDF1 mice; details: M5076, ip, 504 h, i.p.; for survival rate on day 21 at 25 mg/kg / inhibition in vivo at 25 mg/kg: 25 mg/kg/day, d9 after transplantation
Experimental: M5076 cells (1×10^6 /animal) were subcutaneously transplanted into the side part of each BDF1 mouse (aged 6 to 7 weeks, female). A compound of the present invention was dissolved in a 5% solution of glucose. From the next day of the transplantation, the solution of the compound was intraperitoneally administered to the animals once a day in accordance with each schedule. On the other hand, a 5% solution of glucose was administered to the control group. The control group had 10 animals, while each test group had 5 animals.
On the 21st day after the transplantation, tumors were taken out and weighed. The tumor multiplication inhibitory ratio of each test group to the control group was determined in accordance with the following formula: [formula] wherein T means the average tumor weight of the test group; and C means the average tumor weight of the control group.

[4] = system: MX-1 (Human Mammary Cancer); experiment: in vivo Antitumor Test on MX-1 (Human Mammary Cancer) transplanted in nude mice; details: Mus musculus, ip, 528 h, i.p.; for responders at 25 mg/kg / inhibition in vivo at 25 mg/kg: 25 mg/kg/day
Experimental: MX-1 tumor pieces (about 1 mm^3) were subcutaneously transplanted into the side part of each nude mouse (BALB/C.nu/nu, 6 to 7 weeks, female). A compound of the present invention was dissolved in a 5% solution of glucose. When the tumor volume reached 50 mm^3 (on the about 10th day after the transplantation), the solution of the compound was intraperitoneally administered to the animals once a day in accordance with each schedule. On the other hand, a 5% solution of glucose was administered to the control group. The control group had 10 animals, while each test group had 5 animals. On the 22nd day after the transplantation, tumors were taken out and weighed. The tumor multiplication inhibitory ratio of each test group to the control group was determined in accordance with the following formula: [formula] wherein T means the average tumor weight of the test group; and C means the average tumor weight of the control group.

[5] = Drugs Fut., 17, 832 (1992), cited from earlier work
[6] = Farmaco, 47, 1035 (1992), J. Med. Chem., 37, 593 (1994)
[7] = read-out: Survival rate on the judgement day (21th day)
[8] = tumor weight day 21, read-out: Proliferation inhibitory ratio (%)
[9] = q7d × 3, read-out: Survival rate on the judgement day (22th day)
[10] = q7d × 3, tumor weight day 22, read-out: Proliferation inhibitory ratio (%)

2,3-dihydro-2-[2-(dimethylamino)ethyl]-1H,7H-naphthylidino[3,2,1-ij]quinazoline-1,3,7(2H)-trione
antitumor activity in preclinical tests [1, 6]: only a weak antitumor activity in preclinical tests

CN(C)CCn1c(=O)c2cccc3c(=O)c4ccccc4n(c1=O)c32 [2-[2-(dimethylamino)ethyl]pyrimid[5,6,1-de]acridine-1,3,7-trione]
antitumor activity in preclinical tests [1, 6]: only a weak antitumor activity in preclinical tests

CN(C)CCn1c(=O)c2cccc3c4c5ccccc5ccc4n(c1=O)c23 [Example 1, 5-[2-(Dimethylamino)ethyl]-4H-benzo[c]pyrimido[5,6,1-jk]carbazole-4,6(5H)-dione hydrochloride]
IC50 [2]: 0.29 µM | survival rate on day 21 at 50 mg/kg ([3]; 50 mg/kg/day, d1,2,3,4 after transplantation, read-out: Survival rate on the judgement day (21th day)): 100% | inhibition in vivo at 50 mg/kg ([3]; 50 mg/kg/day, d1,2,3,4 after transplantation, tumor weight day 21, read-out: Proliferation inhibitory ratio (%)): 95.2% | responders at 25 mg/kg ([4]; q4d × 4, read-out: Survival rate on the judgement day (22th day)): 100% | inhibition in vivo at 25 mg/kg ([4]; q4d × 4, tumor weight day 22, read-out: Proliferation inhibitory ratio (%)): 48%

CC(=O)c1ccc2c(ccc3c2c2cccc4c(=O)n(CCN(C)C)c(=O)n3c42)c1 [Example 2, 11-Acetyl-5-[2-(dimethylamino)ethyl]-4H-benzo[c]pyrimido[5,6,1-jk]carbazole-4,6(5H)-dione hydrochloride]
IC50 [2]: 0.07 µM | survival rate on day 21 at 25 mg/kg [3, 7]: 100% | inhibition in vivo at 25 mg/kg [3, 8]: 91.4% | responders at 25 mg/kg [4, 9]: 100% | inhibition in vivo at 25 mg/kg [4, 10]: 63.3%

CC(O)c1ccc2c(ccc3c2c2cccc4c(=O)n(CCN(C)C)c(=O)n3c42)c1 (centres unmarked) [Example 3, 5-[2-(Dimethylamino)ethyl]-11-(1-hydroxyethyl)-4H-benzo[c]pyrimido[5,6,1-jk]carbazole-4,6(5H)-dione hydrochloride]
IC50 [2]: 0.026 µM | survival rate on day 21 at 25 mg/kg [3, 7]: 100% | inhibition in vivo at 25 mg/kg [3, 8]: 90% | responders at 20 mg/kg ([4]; 20 mg/kg/day, q7d × 3, read-out: Survival rate on the judgement day (22th day)): 100% | inhibition in vivo at 20 mg/kg ([4]; 20 mg/kg/day, q7d × 3, tumor weight day 22, read-out: Proliferation inhibitory ratio (%)): 55.7%

CN(C)CCn1c(=O)c2cccc3c4c5c(ccc4n(c1=O)c23)C(=O)CCC5 [Example 4, 12,13-Dihydro-5-[2-(dimethylamino)ethyl]-4H-benzo[c]pyrimido[5,6,1-jk]carbazole-4,6,10(5H,11H)-trione hydrochloride]
IC50 [2]: 0.03 µM | survival rate on day 21 at 12.5 mg/kg ([3]; 12.5 mg/kg/day, d1,8,15 after transplantation, read-out: Survival rate on the judgement day (21th day)): 100% | inhibition in vivo at 12.5 mg/kg ([3]; 12.5 mg/kg/day, d1,8,15 after transplantation, tumor weight day 21, read-out: Proliferation inhibitory ratio (%)): 100% | survival rate on day 21 at 25 mg/kg [3, 7]: 100% | inhibition in vivo at 25 mg/kg [3, 8]: 89.2% | responders at 15 mg/kg ([4]; 15 mg/kg/day, q7d × 3, read-out: Survival rate on the judgement day (22th day)): 100% | inhibition in vivo at 15 mg/kg ([4]; 15 mg/kg/day, q7d × 3, tumor weight day 22, read-out: Proliferation inhibitory ratio (%)): 98.4%

CN(C)CCn1c(=O)c2cccc3c4c5c(ccc4n(c1=O)c23)C(=O)CO5 [Example 8, 8-[2-(Dimethylamino)ethyl]-7H-furo[3,2-c]pyrimido[5,6,1-jk]carbazole-3,7,9(2H,8H)-trione hydrochloride]
IC50 [2]: 0.34 µM | survival rate on day 21 at 30 mg/kg ([3]; 30 mg/kg/day, d1,8,15 after transplantation, read-out: Survival rate on the judgement day (21th day)): 100% | inhibition in vivo at 30 mg/kg ([3]; 30 mg/kg/day, d1,8,15 after transplantation, tumor weight day 21, read-out: Proliferation inhibitory ratio (%)): 99.9% | responders at 25 mg/kg [4, 9]: 100% | inhibition in vivo at 25 mg/kg [4, 10]: 94%

CN(C)CCN1C(=O)c2cccc3cc(N)cc(c23)C1=O [amonafide, 5-amino-2-[2-(dimethylamino)ethyl]-1H-benz[de]isoquinoline-1,3(2H)-dione]
efficacy in clinical tests [5]: poor efficacy in clinical tests | bone marrow toxicity ([5]; clinical tests): strong bone marrow toxicity

CN(C)CCN1C(=O)c2cccc3cc4ccccc4c(c23)C1=O [azonafide, 2-[2'-(dimethylamino)ethyl]-1,2-dihydro-3H-dibenz(deh)-isoquinoline-1,3-dione]
antitumor activity in preclinical tests ([1]; compared with amonafide, WO9200281): enhance the antitumor activity in preclinical tests
